Data reported in US10519106B2, “Urea derivative and use therefor” (Toray Industries, Inc., priority 2015, dated 2019).
Counter-ions that a name gives are not always drawn.

Target: T1, intracellular domain of DDR1 (Homo sapiens, UniProt Q08345)
T1 construct: the intracellular domain of DDR1 (in a final concentration of 5 ng/μL) (Carna Biosciences, Inc.); purchased Carna Biosciences, Inc
Test: Evaluation of DDR1 inhibition activity with HTRF KinEASE-TK kit
Assay type: biochemical
Details: intracellular domain of DDR1 5 ng/μL, ATP 25 mol/L (so in the source), TK Substrate-biotin 1000 nmol/L, room temperature, one hour
Experimental: The DDR1 inhibition activity of the compounds of Examples 1 to 51 was evaluated with HTRF® KinEASE-TK kit (Cisbio Bioassays).
Each test substance was dissolved in dimethyl sulfoxide (hereinafter referred to as DMSO) and then used for the evaluation as described below. Moreover, each of test substances and reagents was diluted in the kinase buffer (Cisbio Bioassays) prepared by adding thereto MgCl2, MnCl2, DTT, and the Supplemental Enzyme buffer (Cisbio Bioassays) to concentrations of 5 mmol/L, 0.5 mmol/L, 0.25 mmol/L, and 50 nmol/L, respectively, and then used. Each test substance (in DMSO in a final concentration of 1%), the intracellular domain of DDR1 (in a final concentration of 5 ng/μL) (Carna Biosciences, Inc.), the phosphate donor ATP (in final concentration of 25 mol/L) (Sigma), and the substrate TK Substrate-biotin (in a final concentration of 1000 nmol/L) (Cisbio Bioassays) were added to a 384-well black plate (Corning) and allowed to react at room temperature for one hour. After completion of the reaction, the TK Antibody-Cryptate (Cisbio Bioassays) and the Streptavidin-XL665 (Cisbio Bioassays) were added thereto and allowed to react at room temperature for one hour. In addition, the plate was provided with a well to which a test substance was not added, and with a well to which the intracellular domain of DDR1 and a test substance were not added.
The fluorescence intensity in each well was measured using a multi-label counter (Envision, PerkinElmer; excitation wavelength: 320 nm, measurement wavelength: 665 nm and 620 nm) to calculate a Ratio (the fluorescence intensity at 665 nm/the fluorescence intensity at 620 nm). The inhibition rate (%) of a test substance at each concentration was calculated based on the formula below. Inhibition rate (%)=([the Ratio obtained from the well containing no test substance]−[the Ratio from a well containing a test substance])/([the Ratio obtained from the well containing no test substance]−[the Ratio obtained from the well containing no intracellular domain of DDR1 and no test substance])×100
The calculated inhibition rates were fitted to a sigmoidal dose-response curve by regression analysis using the Prism 5.04 (GraphPad Software, Inc.) to calculate the ICso0 value of the test substance.

T1 sequence (Q08345 444-876 isoform Q08345-2 limits assumed): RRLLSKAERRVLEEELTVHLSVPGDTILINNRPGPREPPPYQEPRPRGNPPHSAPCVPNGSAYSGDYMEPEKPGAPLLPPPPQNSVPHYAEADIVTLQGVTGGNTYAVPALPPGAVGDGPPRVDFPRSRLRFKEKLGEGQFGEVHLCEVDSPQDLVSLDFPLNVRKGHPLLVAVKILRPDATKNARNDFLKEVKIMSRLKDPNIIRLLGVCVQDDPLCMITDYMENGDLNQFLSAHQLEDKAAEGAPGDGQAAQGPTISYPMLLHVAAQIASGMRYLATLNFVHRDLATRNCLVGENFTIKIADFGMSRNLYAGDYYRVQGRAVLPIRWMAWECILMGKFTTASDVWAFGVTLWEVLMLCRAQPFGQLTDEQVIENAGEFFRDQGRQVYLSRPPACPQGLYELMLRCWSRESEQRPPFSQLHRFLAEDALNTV

Row | SMILES | IC50 [µM]
1 | NC(=O)c1ccc(Oc2ccccc2CNC(=O)Nc2cc(C(F)(F)F)ccc2OC2CCNCC2)cc1 [Compound of Example 41, 4-(2-((3-(2-(piperidin-4-yloxy)-5-(trifluoromethyl)phenyl)ureido)methyl)phenoxy)benzamide] | 0.0352
2 | CCOc1ccc(Cl)cc1NC(=O)NCc1ccccc1Oc1ccc(C(N)=O)cc1 [Compound of Example 51] | 0.0183
3 | NC(=O)c1ccc(Oc2ccccc2CNC(=O)Nc2cccc(C(F)(F)F)c2)cc1 [Compound of Example 32] | 0.0173
4 | COc1ccc(OC(F)(F)F)cc1NC(=O)NCc1ccccc1OCc1ccc(C(=O)NCCN(C)C)cc1 [Compound of Example 16, N-(2-(dimethylamino)ethyl)-4-((2-((3-(2-methoxy-5-(trifluoromethoxy)phenyl)ureido)methyl)phenoxy)methyl)benzamide] | 0.163
5 | NC(=O)c1cccc(Oc2ccccc2CNC(=O)Nc2cccc(C(F)(F)F)c2)c1 [Compound of Example 44] | 0.0237
6 | COc1ccc(C(F)(F)F)cc1NC(=O)NCc1cccc(OCc2cccnc2)c1 [Compound of Example 6] | 0.0325
7 | COc1ccc(Cl)cc1NC(=O)NCc1ccccc1Oc1ccc(C(N)=O)cc1 [Compound of Example 50] | 0.0123
8 | COc1ccc(OC(F)(F)F)cc1NC(=O)NCc1ccccc1OCc1ccc(C(=O)O)cc1 [Compound of Example 8, 4-((2-((3-(2-methoxy-5-(trifluoromethoxy)phenyl)ureido)methyl)phenoxy)methyl)benzoic acid] | 0.172
9 | NC(=O)c1ccc(Oc2ccccc2CNC(=O)Nc2cccc(C(F)(F)F)c2)nc1 [Compound of Example 47, 6-(2-((3-(3-(trifluoromethyl)phenyl)ureido)methyl)phenoxy)nicotinamide] | 0.0234
10 | COC(=O)c1ccc(COc2ccccc2CNC(=O)Nc2cc(C(F)(F)F)cc(CO)c2OC)cc1 [Compound of Example 10, methyl 4-((2-((3-(3-(hydroxymethyl)-2-methoxy-5-(trifluoromethyl)phenyl)ureido)methyl)phenoxy)methyl)benzoate] | 0.156
11 | COc1ccc(OC(F)(F)F)cc1NC(=O)NCc1ccccc1OCc1ccc(C(N)=O)cc1 [Compound of Example 12, 4-((2-((3-(2-methoxy-5-(trifluoromethoxy)phenyl)ureido)methyl)phenoxy)methyl)benzamide] | 0.0386
12 | COc1ccc(OC(F)(F)F)cc1NC(=O)NCc1ccccc1OCc1ccc(C(=O)N(C)C)cc1 [Compound of Example 14, 4-((2-((3-(2-methoxy-5-(trifluoromethoxy)phenyl)ureido)methyl)phenoxy)methyl)-N,N-dimethylbenzamide] | 0.156
13 | COc1ccc(OC(F)(F)F)cc1NC(=O)NCc1ccccc1OCc1ccnc(C(N)=O)c1 [Compound of Example 5, 4-((2-((3-(2-methoxy-5-(trifluoromethoxy)phenyl)ureido)methyl)phenoxy)methyl)picolinamide] | 0.047
14 | COc1c(CO)cc(C(F)(F)F)cc1NC(=O)NCc1ccccc1Oc1ccc(C(=O)O)cc1 [Compound of Example 28] | 0.0145
15 | COc1c(CO)cc(S(F)(F)(F)(F)F)cc1NC(=O)NCc1ccccc1OCc1ccncc1 [Compound of Example 2] | 0.0261
16 | COc1ccc(OC(F)(F)F)cc1NC(=O)NCc1ccccc1OCc1cccc(C(=O)O)c1 [Compound of Example 9, 3-((2-((3-(2-methoxy-5-(trifluoromethoxy)phenyl)ureido)methyl)phenoxy)methyl)benzoic acid] | 0.137
17 | COc1ccc(C(F)(F)F)cc1NC(=O)NCc1ccccc1OCc1cccc(C(N)=O)c1 [Compound of Example 21, 3-((2-((3-(2-methoxy-5-(trifluoromethyl)phenyl)ureido)methyl)phenoxy)methyl)benzamide] | 0.0674
18 | COc1c(CO)cc(C(F)(F)F)cc1NC(=O)NCc1ccccc1OCc1ccc(C(=O)O)cc1 [Compound of Example 11, 4-((2-((3-(3-(hydroxymethyl)-2-methoxy-5-(trifluoromethyl)phenyl)ureido)methyl)phenoxy)methyl)benzoic acid] | 0.15

The remaining compounds from weak to strong by IC50, led by results:

Row | IC50 [µM] | SMILES
19 | 0.838 | COc1ccc(OC(F)(F)F)cc1NC(=O)NCc1ccccc1OCc1cccnc1 [Compound of Example 3]
20 | 0.185 | CNCCNC(=O)c1ccc(COc2ccccc2CNC(=O)Nc2cc(OC(F)(F)F)ccc2OC)cc1 [Compound of Example 17, 4-((2-((3-(2-methoxy-5-(trifluoromethoxy)phenyl)ureido)methyl)phenoxy)methyl)-N-(2-(methylamino)ethyl)benzamide]
21 | 0.0964 | CNC(=O)c1ccc(COc2ccccc2CNC(=O)Nc2cc(OC(F)(F)F)ccc2OC)cc1 [Compound of Example 13, 4-((2-((3-(2-methoxy-5-(trifluoromethoxy)phenyl)ureido)methyl)phenoxy)methyl)-N-methylbenzamide]
22 | 0.0787 | COc1ccc(S(F)(F)(F)(F)F)cc1NC(=O)NCc1ccccc1Oc1ccncc1 [Compound of Example 23, 1-(2-methoxy-5-(pentafluorosulfanyl)phenyl)-3-(2-(pyridin-4-yloxy)benzyl)urea hydrochloride]
23 | 0.0291 | CNC(=O)c1ccc(Oc2ccccc2CNC(=O)Nc2cccc(C(F)(F)F)c2)nc1 [Compound of Example 48, N-methyl-6-(2-((3-(3-(trifluoromethyl)phenyl)ureido)methyl)phenoxy)nicotinamide]
24 | 0.0285 | COc1c(CO)cc(C(F)(F)F)cc1NC(=O)NCc1ccccc1OCc1cccc(C(N)=O)c1 [Compound of Example 22]
25 | 0.022 | NC(=O)c1ccc(Oc2ccccc2CNC(=O)Nc2cc(OC(F)(F)F)ccc2OC2COC2)cc1 [Compound of Example 34, 4-(2-((3-(2-(oxetan-3-yloxy)-5-(trifluoromethoxy)phenyl)ureido)methyl)phenoxy)benzamide]
26 | 0.0215 | CNC(=O)c1ccc(Oc2ccccc2CNC(=O)Nc2cccc(C(F)(F)F)c2)cc1 [Compound of Example 42]
27 | 0.0193 | NC(=O)c1ccc(Oc2ccccc2CNC(=O)Nc2cccc(Cl)c2)cc1 [Compound of Example 49, 4-(2-((3-(3-chlorophenyl)ureido)methyl)phenoxy)benzamide]
28 | 0.0129 | NC(=O)c1ccc(Oc2ccccc2CNC(=O)Nc2cc(CO)cc(C(F)(F)F)c2)cc1 [Compound of Example 35]
29 | 0.0124 | COc1ccc(C(F)(F)F)cc1NC(=O)NCc1ccccc1Oc1ccc(C(=O)O)cc1 [Compound of Example 30]
30 | 0.0117 | CN1CCN(Cc2cc(NC(=O)NCc3ccccc3Oc3ccc(C(N)=O)cc3)cc(C(F)(F)F)c2)CC1 [Compound of Example 37, 4-(2-((3-(3-((4-methylpiperazin-1-yl)methyl)-5-(trifluoromethyl)phenyl)ureido)methyl)phenoxy)benzamide]
31 | 0.00598 | COc1c(CO)cc(C(F)(F)F)cc1NC(=O)NCc1ccccc1Oc1ccc(C(N)=O)cc1 [Compound of Example 29]
32 | 0.00464 | CN1CCN(Cc2ccc(NC(=O)NCc3ccccc3Oc3ccc(C(N)=O)cc3)cc2C(F)(F)F)CC1 [Compound of Example 38, 4-(2-((3-(4-((4-methylpiperazin-1-yl)methyl)-3-(trifluoromethyl)phenyl)ureido)methyl)phenoxy)benzamide]
